Test results taken from US9695155B2, “Herbicidal substituted pyrimidinyloxy benzene compounds” (E. I. DU PONT DE NEMOURS AND COMPANY, priority 2013, dated 2017).

Experiments:
soybean = assay: Test E postemergence; type: in vivo, Glycine max
In short: (§1)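 Response was scored visually on a 0-100 scale (100 = complete control) versus controls after 14 to 21 days in the greenhouse. Test chemicals, formulated with surfactant in a non-phytotoxic solvent mixture, had been applied preemergence to seeds in silt loam soil or postemergence to 1- to 4-leaf plants in potting medium.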

[1] = test system: waterhemp_RES1 (ALS & Triazine resistant common waterhemp); assay: Test E postemergence; type: in vivo, Amaranthus rudis
In short: as §1

[2] = test system: waterhemp_RES2 (ALS & HPPD resistant common waterhemp); assay: Test E postemergence; type: in vivo, Amaranthus rudis
In short: as §1

waterhemp = assay: Test E postemergence; type: in vivo, Amaranthus rudis
In short: as §1

ducksalad = assay: Test C flooded paddy test; type: in vivo, Heteranthera limosa; details: Flood, scale 0 to 100 (0 no effect, 100 complete control), 13 to 15 days
In short: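 Flooded 3 cm over soil; compound into paddy water; depth kept constant. Greenhouse 13–15 d.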

arrowleaf sida = assay: Test E postemergence; type: in vivo, Sida rhombifolia
In short: as §1

fall panicum = assay: Test E postemergence; type: in vivo, Panicum dichotomiflorum
In short: as §1

sandbur = assay: Test E postemergence; type: in vivo, Cenchrus echinatus
In short: as §1

hairy beggarticks = assay: Test E postemergence; type: in vivo, Bidens pilosa
In short: as §1

dayflower = assay: Test E postemergence; type: in vivo, Commelina virginica
In short: as §1

[3] = Postemergence, 31 g ai/ha, scale 0 to 100
[4] = Postemergence, 62 g ai/ha, scale 0 to 100
[5] = Postemergence, 125 g ai/ha, scale 0 to 100
[6] = postemergence, 8 g ai/ha, scale 0 to 100, 0 no effect, 100 complete control
[7] = postemergence, 16 g ai/ha, scale 0 to 100, 0 no effect, 100 complete control

SMILES: FC(F)(F)c1cnn(-c2c(Br)cccc2Oc2ncc(Cl)cn2)c1 [Compound 191]
- Plant response rating, Soybean (soybean; [3]): 60
- Plant response rating, Soybean (soybean; [4]): 50
- Plant response rating, Soybean (soybean; [5]): 95
- Plant response rating, Soybean (soybean; [6]): 20
- Plant response rating, Soybean (soybean; [7]): 30
- Plant response rating, Waterhemp_RES1 [1, 3]: 80
- Plant response rating, Waterhemp_RES1 [1, 4]: 90
- Plant response rating, Waterhemp_RES1 [1, 5]: 95
- Plant response rating, Waterhemp_RES1 [1, 6]: 50
- Plant response rating, Waterhemp_RES1 [1, 7]: 70
- Plant response rating, Waterhemp_RES2 [2, 3]: 95
- Plant response rating, Waterhemp_RES2 [2, 4]: 95
- Plant response rating, Waterhemp_RES2 [2, 5]: 100
- Plant response rating, Waterhemp_RES2 [2, 7]: 90
- Plant response rating, Waterhemp (waterhemp; [3]): 90
- Plant response rating, Waterhemp (waterhemp; [4]): 90
- Plant response rating, Waterhemp (waterhemp; [5]): 95
- Plant response rating, Waterhemp (waterhemp; [6]): 60
- Plant response rating, Waterhemp (waterhemp; [7]): 70
- Plant response rating, Ducksalad (ducksalad; 31 g ai/ha): 30
- Plant response rating, Ducksalad (ducksalad; 62 g ai/ha): 50
- Plant response rating, Ducksalad (ducksalad; 125 g ai/ha): 75
- Plant response rating, Ducksalad (ducksalad; 250 g ai/ha): 80
- Plant response rating, Arrowleaf Sida (arrowleaf sida; [3]): 70
- Plant response rating, Arrowleaf Sida (arrowleaf sida; [4]): 70
- Plant response rating, Arrowleaf Sida (arrowleaf sida; [5]): 100
- Plant response rating, Arrowleaf Sida (arrowleaf sida; [6]): 50
- Plant response rating, Arrowleaf Sida (arrowleaf sida; [7]): 60
- Plant response rating, Panicum, Fall (fall panicum; [3]): 5
- Plant response rating, Panicum, Fall (fall panicum; [4]): 10
- Plant response rating, Panicum, Fall (fall panicum; [5]): 20
- Plant response rating, Panicum, Fall (fall panicum; [6]): 0
- Plant response rating, Panicum, Fall (fall panicum; [7]): 0
- Plant response rating, Sandbur (sandbur; [3]): 0
- Plant response rating, Sandbur (sandbur; [4]): 0
- Plant response rating, Sandbur (sandbur; [5]): 10
- Plant response rating, Sandbur (sandbur; [6]): 0
- Plant response rating, Sandbur (sandbur; [7]): 0
- Plant response rating, Beggarticks (hairy beggarticks; [3]): 40
- Plant response rating, Beggarticks (hairy beggarticks; [4]): 50
- Plant response rating, Beggarticks (hairy beggarticks; [5]): 50
- Plant response rating, Beggarticks (hairy beggarticks; [6]): 10
- Plant response rating, Beggarticks (hairy beggarticks; [7]): 20
- Plant response rating, Dayflower, VA (dayflower; [3]): 5
- Plant response rating, Dayflower, VA (dayflower; [4]): 10
- Plant response rating, Dayflower, VA (dayflower; [5]): 10
- Plant response rating, Dayflower, VA (dayflower; [6]): 0
- Plant response rating, Dayflower, VA (dayflower; [7]): 0

SMILES: N#Cc1cccc(Oc2ncc(F)cn2)c1-n1cc(C(F)(F)F)cn1 [Compound 79, 3-[(5-fluoro-2-pyrimidinyl)oxy]-2-[4-(trifluoromethyl)-1H-pyrazol-1-yl]benzonitrile]
- plant response (crop injury) rating, soybean, 0-100 scale at 31 g/ha (soybean; Glycine max, post-emergence, Postemergence, 31 g ai/ha, scale 0 to 100): 70%
- plant response (crop injury) rating, soybean, 0-100 scale at 62 g/ha (soybean; Glycine max, post-emergence, Postemergence, 62 g ai/ha, scale 0 to 100): 95%
- plant response (crop injury) rating, soybean, 0-100 scale at 125 g/ha (soybean; Glycine max, post-emergence, Postemergence, 125 g ai/ha, scale 0 to 100): 95%
- plant response (crop injury) rating, soybean, 0-100 scale at 16 g/ha (soybean; Glycine max, post-emergence, postemergence, 16 g ai/ha, scale 0 to 100, 0 no effect, 100 complete control): 60%
- Plant response rating, Waterhemp_RES1 [1, 3]: 60
- Plant response rating, Waterhemp_RES1 [1, 4]: 75
- Plant response rating, Waterhemp_RES1 [1, 5]: 100
- Plant response rating, Waterhemp_RES1 [1, 7]: 40
- pest or weed control at 31 g/ha ([2]; Amaranthus tuberculatus, post-emergence, Postemergence, 31 g ai/ha, scale 0 to 100, read-out: Plant response rating, Waterhemp_RES2): 80%
- pest or weed control at 62 g/ha ([2]; Amaranthus tuberculatus, post-emergence, Postemergence, 62 g ai/ha, scale 0 to 100, read-out: Plant response rating, Waterhemp_RES2): 90%
- pest or weed control at 125 g/ha ([2]; Amaranthus tuberculatus, post-emergence, Postemergence, 125 g ai/ha, scale 0 to 100, read-out: Plant response rating, Waterhemp_RES2): 95%
- pest or weed control at 16 g/ha ([2]; Amaranthus tuberculatus, post-emergence, postemergence, 16 g ai/ha, scale 0 to 100, 0 no effect, 100 complete control, read-out: Plant response rating, Waterhemp_RES2): 75%
- pest or weed control at 31 g/ha (waterhemp; Amaranthus tuberculatus, post-emergence, Postemergence, 31 g ai/ha, scale 0 to 100, read-out: Plant response rating, Waterhemp): 90%
- pest or weed control at 62 g/ha (waterhemp; Amaranthus tuberculatus, post-emergence, Postemergence, 62 g ai/ha, scale 0 to 100, read-out: Plant response rating, Waterhemp): 85%
- pest or weed control at 125 g/ha (waterhemp; Amaranthus tuberculatus, post-emergence, Postemergence, 125 g ai/ha, scale 0 to 100, read-out: Plant response rating, Waterhemp): 100%
- pest or weed control at 16 g/ha (waterhemp; Amaranthus tuberculatus, post-emergence, postemergence, 16 g ai/ha, scale 0 to 100, 0 no effect, 100 complete control, read-out: Plant response rating, Waterhemp): 70%
- pest or weed control at 31 g/ha (arrowleaf sida; Sida rhombifolia, post-emergence, Postemergence, 31 g ai/ha, scale 0 to 100, read-out: Plant response rating, Arrowleaf Sida): 75%
- pest or weed control at 62 g/ha (arrowleaf sida; Sida rhombifolia, post-emergence, Postemergence, 62 g ai/ha, scale 0 to 100, read-out: Plant response rating, Arrowleaf Sida): 85%
- pest or weed control at 125 g/ha (arrowleaf sida; Sida rhombifolia, post-emergence, Postemergence, 125 g ai/ha, scale 0 to 100, read-out: Plant response rating, Arrowleaf Sida): 98%
- pest or weed control at 16 g/ha (arrowleaf sida; Sida rhombifolia, post-emergence, postemergence, 16 g ai/ha, scale 0 to 100, 0 no effect, 100 complete control, read-out: Plant response rating, Arrowleaf Sida): 65%
- pest or weed control at 31 g/ha (fall panicum; Panicum dichotomiflorum, post-emergence, Postemergence, 31 g ai/ha, scale 0 to 100, read-out: Plant response rating, Panicum, Fall): 35%
- pest or weed control at 62 g/ha (fall panicum; Panicum dichotomiflorum, post-emergence, Postemergence, 62 g ai/ha, scale 0 to 100, read-out: Plant response rating, Panicum, Fall): 30%
- pest or weed control at 125 g/ha (fall panicum; Panicum dichotomiflorum, post-emergence, Postemergence, 125 g ai/ha, scale 0 to 100, read-out: Plant response rating, Panicum, Fall): 30%
- pest or weed control at 16 g/ha (fall panicum; Panicum dichotomiflorum, post-emergence, postemergence, 16 g ai/ha, scale 0 to 100, 0 no effect, 100 complete control, read-out: Plant response rating, Panicum, Fall): 20%
- pest or weed control at 31 g/ha (sandbur; Cenchrus echinatus, post-emergence, Postemergence, 31 g ai/ha, scale 0 to 100, read-out: Plant response rating, Sandbur): 0%
- pest or weed control at 62 g/ha (sandbur; Cenchrus echinatus, post-emergence, Postemergence, 62 g ai/ha, scale 0 to 100, read-out: Plant response rating, Sandbur): 0%
- pest or weed control at 125 g/ha (sandbur; Cenchrus echinatus, post-emergence, Postemergence, 125 g ai/ha, scale 0 to 100, read-out: Plant response rating, Sandbur): 10%
- pest or weed control at 16 g/ha (sandbur; Cenchrus echinatus, post-emergence, postemergence, 16 g ai/ha, scale 0 to 100, 0 no effect, 100 complete control, read-out: Plant response rating, Sandbur): 0%
- pest or weed control at 31 g/ha (hairy beggarticks; Bidens pilosa, post-emergence, Postemergence, 31 g ai/ha, scale 0 to 100, read-out: Plant response rating, Beggarticks): 50%
- pest or weed control at 62 g/ha (hairy beggarticks; Bidens pilosa, post-emergence, Postemergence, 62 g ai/ha, scale 0 to 100, read-out: Plant response rating, Beggarticks): 75%
- pest or weed control at 125 g/ha (hairy beggarticks; Bidens pilosa, post-emergence, Postemergence, 125 g ai/ha, scale 0 to 100, read-out: Plant response rating, Beggarticks): 80%
- pest or weed control at 16 g/ha (hairy beggarticks; Bidens pilosa, post-emergence, postemergence, 16 g ai/ha, scale 0 to 100, 0 no effect, 100 complete control, read-out: Plant response rating, Beggarticks): 40%
- pest or weed control at 31 g/ha (dayflower; Commelina virginica, post-emergence, Postemergence, 31 g ai/ha, scale 0 to 100, read-out: Plant response rating, Dayflower, VA): 30%
- pest or weed control at 62 g/ha (dayflower; Commelina virginica, post-emergence, Postemergence, 62 g ai/ha, scale 0 to 100, read-out: Plant response rating, Dayflower, VA): 50%
- pest or weed control at 125 g/ha (dayflower; Commelina virginica, post-emergence, Postemergence, 125 g ai/ha, scale 0 to 100, read-out: Plant response rating, Dayflower, VA): 50%
- pest or weed control at 16 g/ha (dayflower; Commelina virginica, post-emergence, postemergence, 16 g ai/ha, scale 0 to 100, 0 no effect, 100 complete control, read-out: Plant response rating, Dayflower, VA): 10%
